Test results published in US20230148251A1, “COMPOUND NUTRIENT CAPABLE OF REPAIRING DAMAGED INTESTINES OF PIGELETS AND METHOD OF USING THE SAME” (Sichuan Agricultural University, priority 2021, published 2023).

What was measured:
[1] = test system: low-birth-weight suckling piglets; test: Arginine supplementation: serum antioxidant enzyme activity and MDA content; type: in vivo; settings: 0.04% arginine in feed vs without
Excerpt: (§1) Three-day-old suckling piglets with low birth weight were used as experimental animals. They were randomly divided into two treatments, fed with 0.04% and without arginine feed. Each treatment had 8 replicates, and each replicate had 1 piglet. The test period was 21 days. After the test, the piglet serum was collected to investigate the antioxidant capacity of the piglet serum.

[2] = test system: low-birth-weight suckling piglets; test: Arginine supplementation: growth performance of low-birth-weight suckling piglets; type: in vivo; settings: 0.04% arginine in feed vs without
Excerpt: as §1, with “days” for “days. After the test, the piglet serum was collected”, “growth performance” for “antioxidant capacity”, “piglets.” for “the piglet serum.”

N=C(N)NCCC[C@H](N)C(=O)O [Arginine Group, arginine]
significantly improve: antioxidant capacity of weak piglets (in words) [1] | daily gain of weak piglets (in words) [2] | feed intake of weak piglets (in words) [2]
